What was measured:
Format in all cases: in vivo
[1] = test system: Amaranthus retoflexus (AMARE); experiment: Pre-emergence herbicidal glasshouse test on Amaranthus retoflexus; conditions: pre-emergence; 1000 g/h; evaluated after 13 days
How it was run: (§1)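 Read-out: percentage herbicidal damage 13 days after spraying, given on a five-point scale (5=80-100%, 4=60-79%, 3=40-59%, 2=20-39%, 1=0-19%). Pots of standard soil; application at 1000 g/h, one day post-sowing for pre-emergence, eight days for post-emergence.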

[2] = test system: Echinochloa crus-galli (ECHCG); experiment: Post-emergence herbicidal glasshouse test on Echinochloa crus-galli; conditions: post-emergence; 1000 g/h; evaluated after 13 days
How it was run: as §1

Solanum nigrum (SOLNI) [3] = experiment: Post-emergence herbicidal glasshouse test on Solanum nigrum; conditions: post-emergence; 1000 g/h; evaluated after 13 days
How it was run: as §1

[4] = test system: Ipomoea hederacea (IPOHE); experiment: Pre-emergence herbicidal glasshouse test on Ipomoea hederacea; conditions: pre-emergence; 1000 g/h; evaluated after 13 days
How it was run: as §1

Solanum nigrum (SOLNI) [5] = experiment: Pre-emergence herbicidal glasshouse test on Solanum nigrum; conditions: pre-emergence; 1000 g/h; evaluated after 13 days
How it was run: as §1

[6] = test system: Alopecurus myosuroides (ALOMY); experiment: Post-emergence herbicidal glasshouse test on Alopecurus myosuroides; conditions: post-emergence; 1000 g/h; evaluated after 13 days
How it was run: as §1

[7] = test system: Amaranthus retoflexus (AMARE); experiment: Post-emergence herbicidal glasshouse test on Amaranthus retoflexus; conditions: post-emergence; 1000 g/h; evaluated after 13 days
How it was run: as §1

[8] = test system: Alopecurus myosuroides (ALOMY); experiment: Pre-emergence herbicidal glasshouse test on Alopecurus myosuroides; conditions: pre-emergence; 1000 g/h; evaluated after 13 days
How it was run: as §1

Setaria faberi (SETFA) [9] = experiment: Pre-emergence herbicidal glasshouse test on Setaria faberi; conditions: pre-emergence; 1000 g/h; evaluated after 13 days
How it was run: as §1

[10] = test system: Ipomoea hederacea (IPOHE); experiment: Post-emergence herbicidal glasshouse test on Ipomoea hederacea; conditions: post-emergence; 1000 g/h; evaluated after 13 days
How it was run: as §1

[11] = test system: Echinochloa crus-galli (ECHCG); experiment: Pre-emergence herbicidal glasshouse test on Echinochloa crus-galli; conditions: pre-emergence; 1000 g/h; evaluated after 13 days
How it was run: as §1

Setaria faberi (SETFA) [12] = experiment: Post-emergence herbicidal glasshouse test on Setaria faberi; conditions: post-emergence; 1000 g/h; evaluated after 13 days
How it was run: as §1

| Compound | PRE Application AMARE herbicidal damage (five point scale) [1] | POST Application ECHCG herbicidal damage (five point scale) [2] | POST Application SOLNI herbicidal damage (five point scale) (Solanum nigrum (SOLNI) [3]) | PRE Application IPOHE herbicidal damage (five point scale) [4] | PRE Application SOLNI herbicidal damage (five point scale) (Solanum nigrum (SOLNI) [5]) | POST Application ALOMY herbicidal damage (five point scale) [6] | POST Application AMARE herbicidal damage (five point scale) [7] | PRE Application ALOMY herbicidal damage (five point scale) [8] | PRE Application SETFA herbicidal damage (five point scale) (Setaria faberi (SETFA) [9]) | POST Application IPOHE herbicidal damage (five point scale) [10] | PRE Application ECHCG herbicidal damage (five point scale) [11] | POST Application SETFA herbicidal damage (five point scale) (Setaria faberi (SETFA) [12]) |
| --- | --- | --- | --- | --- | --- | --- | --- | --- | --- | --- | --- | --- |
| Cn1ncc(-c2ccccc2S(=O)(=O)C(F)(F)F)c(O)c1=O [Compound 1.056] | 5 (5=80-100% damage) | 5 (5=80-100% damage) | 5 (5=80-100% damage) | 1 (1=0-19% damage) | 4 (4=60-79% damage) | 5 (5=80-100% damage) | 5 (5=80-100% damage) | 5 (5=80-100% damage) | 1 (1=0-19% damage) | 5 (5=80-100% damage) | 5 (5=80-100% damage) | 5 (5=80-100% damage) |
| Cn1ncc(-n2ccc(C(F)(F)F)c(-c3cccc(Cl)c3Cl)c2=O)c(O)c1=O [Compound 7.029] | 5 (5=80-100% damage) | 5 (5=80-100% damage) | 5 (5=80-100% damage) | 1 (1=0-19% damage) | 5 (5=80-100% damage) | 3 (3=40-59% damage) | 5 (5=80-100% damage) | 2 (2=20-39% damage) | 1 (1=0-19% damage) | 4 (4=60-79% damage) | 2 (2=20-39% damage) | 2 (2=20-39% damage) |
| Cn1ncc(-c2ccc(C(F)(F)F)nc2S(=O)(=O)N2CCOCC2)c(O)c1=O [Compound 4.016] | 5 (5=80-100% damage) | 5 (5=80-100% damage) | 5 (5=80-100% damage) | 5 (5=80-100% damage) | 5 (5=80-100% damage) | 5 (5=80-100% damage) | 5 (5=80-100% damage) | 5 (5=80-100% damage) | 5 (5=80-100% damage) | 5 (5=80-100% damage) | 5 (5=80-100% damage) | 5 (5=80-100% damage) |
| COCc1ccc(-c2cnn(C)c(=O)c2O)c(S(C)(=O)=O)c1 [Compound 2.040] | 5 (5=80-100% damage) | 5 (5=80-100% damage) | 5 (5=80-100% damage) | 3 (3=40-59% damage) | 5 (5=80-100% damage) | 5 (5=80-100% damage) | 5 (5=80-100% damage) | 5 (5=80-100% damage) | 4 (4=60-79% damage) | 5 (5=80-100% damage) | 5 (5=80-100% damage) | 5 (5=80-100% damage) |
| C=CCn1cccc(-c2cnn(C)c(=O)c2O)c1=O [Compound 9.002] | 1 (1=0-19% damage) | 2 (2=20-39% damage) | 5 (5=80-100% damage) | 1 (1=0-19% damage) | 1 (1=0-19% damage) | 1 (1=0-19% damage) | 4 (4=60-79% damage) | 1 (1=0-19% damage) | 1 (1=0-19% damage) | 2 (2=20-39% damage) | 1 (1=0-19% damage) | 2 (2=20-39% damage) |
| Cc1c(-c2c(C#N)nn(C)c(=O)c2O)ccc(S(C)(=O)=O)c1C1=NOCC1 [Compound 2.025] | 5 (5=80-100% damage) | 4 (4=60-79% damage) | 5 (5=80-100% damage) | 5 (5=80-100% damage) | 5 (5=80-100% damage) | 2 (2=20-39% damage) | 5 (5=80-100% damage) | 1 (1=0-19% damage) | 1 (1=0-19% damage) | 4 (4=60-79% damage) | 1 (1=0-19% damage) | 1 (1=0-19% damage) |
| Cn1ncc(-c2ccc(S(C)(=O)=O)c(O)c2Cl)c(O)c1=O [Compound 1.108] | 1 (1=0-19% damage) | 1 (1=0-19% damage) | 3 (3=40-59% damage) | 1 (1=0-19% damage) | 1 (1=0-19% damage) | 1 (1=0-19% damage) | 3 (3=40-59% damage) | 1 (1=0-19% damage) | 1 (1=0-19% damage) | 1 (1=0-19% damage) | 1 (1=0-19% damage) | 1 (1=0-19% damage) |
| Cc1c(-c2cnn(C3CC3)c(=O)c2O)ccc(S(C)(=O)=O)c1C1=NOCC1 [Compound 1.008, 2-cyclopropyl-5-[3-(4,5-dihydroisoxazol-3-yl)-2-methyl-4-methylsulfonyl-phenyl]-4-hydroxy-pyridazin-3-one] | 4 (4=60-79% damage) | 5 (5=80-100% damage) | 5 (5=80-100% damage) | 3 (3=40-59% damage) | 5 (5=80-100% damage) | 5 (5=80-100% damage) | 5 (5=80-100% damage) | 4 (4=60-79% damage) | 4 (4=60-79% damage) | 5 (5=80-100% damage) | 5 (5=80-100% damage) | 5 (5=80-100% damage) |
| Cn1ncc(-n2ccc(C(F)(F)F)c(-c3cccc(F)c3)c2=O)c(O)c1=O [Compound 7.012] | 5 (5=80-100% damage) | 5 (5=80-100% damage) | 5 (5=80-100% damage) | 1 (1=0-19% damage) | 5 (5=80-100% damage) | 5 (5=80-100% damage) | 5 (5=80-100% damage) | 5 (5=80-100% damage) | 5 (5=80-100% damage) | 5 (5=80-100% damage) | 5 (5=80-100% damage) | 5 (5=80-100% damage) |
| Cn1ncc(-c2ccc(Cl)cc2C(F)(F)F)c(O)c1=O [Compound 1.113] | 5 (5=80-100% damage) | 2 (2=20-39% damage) | 5 (5=80-100% damage) | 2 (2=20-39% damage) | 4 (4=60-79% damage) | 2 (2=20-39% damage) | 5 (5=80-100% damage) | 1 (1=0-19% damage) | 1 (1=0-19% damage) | 5 (5=80-100% damage) | 1 (1=0-19% damage) | 3 (3=40-59% damage) |
